# Test results taken from BindingDB's records for doi:10.1021/acs.jmedchem.6b01363 (Genentech, 2017).
# Biological target: Transcription factor p65 (Human, UniProt Q04206)
# Assay: Inhibition of TNF-alpha-stimulated RELA translocation from cytoplasm to nucleus in human HeLa cells preincubated for 4.5 hrs followed by TNF-alpha stimulation measured after 30 mins
# Transcription factor p65, sequence (Q04206 whole entry): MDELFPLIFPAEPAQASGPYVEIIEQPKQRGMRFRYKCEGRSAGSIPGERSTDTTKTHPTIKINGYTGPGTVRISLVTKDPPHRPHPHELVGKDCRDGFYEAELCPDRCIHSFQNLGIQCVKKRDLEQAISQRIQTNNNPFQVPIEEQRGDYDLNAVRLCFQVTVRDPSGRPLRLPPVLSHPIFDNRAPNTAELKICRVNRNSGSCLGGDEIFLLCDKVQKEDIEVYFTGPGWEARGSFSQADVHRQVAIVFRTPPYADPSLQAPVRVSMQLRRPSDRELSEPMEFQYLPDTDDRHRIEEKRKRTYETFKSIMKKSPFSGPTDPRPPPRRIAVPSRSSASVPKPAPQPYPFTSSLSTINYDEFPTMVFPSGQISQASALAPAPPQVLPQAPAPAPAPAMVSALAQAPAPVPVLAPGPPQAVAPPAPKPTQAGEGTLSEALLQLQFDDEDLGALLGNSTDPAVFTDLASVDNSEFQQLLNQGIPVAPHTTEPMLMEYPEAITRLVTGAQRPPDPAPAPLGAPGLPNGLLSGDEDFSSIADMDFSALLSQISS
row,Structure (SMILES),IC50 [µM]
1,"CNC(=O)c1c(C(N)=O)nc2n1CCOc1ccc(C#C[C@@](C)(O)c3cc(C)on3)cc1-2 [US9034866, 96]",> 20
2,"Cc1cc([C@](C)(O)C#Cc2cc3c(cc2F)OCCn2cc(C(N)=O)nc2-3)no1 [US9034866, 6]",> 20
3,"Cc1cc([C@](C)(O)C#Cc2cc3c(cc2F)C2CC(C2)n2cc(C(N)=O)nc2-3)no1 [US9034866, 129]",> 20
